Measurements: patent US9732075B2, “Benzimidazole-proline derivatives” (IDORSIA PHARMACEUTICALS LTD, priority 2012, dated 2017)
pIC50: −log10 of the molar value.

Legend:
human orexin-2 receptor = human orexin-2 receptor (Homo sapiens (Human), UniProt O43614); experiment: In vitro assay: intracellular calcium measurements (FLIPR), antagonistic activity; format: cell-based; conditions: CHO cells expressing human orexin-2 receptor, orexin-A agonist, geometric mean, read-out: IC50 Ox2
Method in brief: (§1)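 Dye-loaded CHO cells expressing either human orexin receptor are exposed to test antagonist for 120 min, then stimulated with orexin-A at 3 nM.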

human orexin-1 receptor = human orexin-1 receptor (Homo sapiens (Human), UniProt O43613); experiment: as above; format: cell-based; conditions: CHO cells expressing human orexin-1 receptor, orexin-A agonist, geometric mean, read-out: IC50 Ox1
Method in brief: as §1

Chain of human orexin-1 receptor (O43613 whole entry): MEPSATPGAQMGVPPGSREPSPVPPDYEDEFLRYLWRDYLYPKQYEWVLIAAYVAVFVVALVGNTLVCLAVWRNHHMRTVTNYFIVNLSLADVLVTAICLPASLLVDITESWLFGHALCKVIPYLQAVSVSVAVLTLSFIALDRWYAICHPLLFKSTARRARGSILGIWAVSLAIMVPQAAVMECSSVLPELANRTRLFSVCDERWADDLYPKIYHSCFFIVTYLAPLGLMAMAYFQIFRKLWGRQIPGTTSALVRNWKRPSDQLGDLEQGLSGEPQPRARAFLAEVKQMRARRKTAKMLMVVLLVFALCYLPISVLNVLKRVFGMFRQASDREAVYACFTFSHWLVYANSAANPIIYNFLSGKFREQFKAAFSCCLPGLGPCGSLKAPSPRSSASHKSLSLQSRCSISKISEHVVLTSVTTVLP
Chain of human orexin-2 receptor (O43614 whole entry): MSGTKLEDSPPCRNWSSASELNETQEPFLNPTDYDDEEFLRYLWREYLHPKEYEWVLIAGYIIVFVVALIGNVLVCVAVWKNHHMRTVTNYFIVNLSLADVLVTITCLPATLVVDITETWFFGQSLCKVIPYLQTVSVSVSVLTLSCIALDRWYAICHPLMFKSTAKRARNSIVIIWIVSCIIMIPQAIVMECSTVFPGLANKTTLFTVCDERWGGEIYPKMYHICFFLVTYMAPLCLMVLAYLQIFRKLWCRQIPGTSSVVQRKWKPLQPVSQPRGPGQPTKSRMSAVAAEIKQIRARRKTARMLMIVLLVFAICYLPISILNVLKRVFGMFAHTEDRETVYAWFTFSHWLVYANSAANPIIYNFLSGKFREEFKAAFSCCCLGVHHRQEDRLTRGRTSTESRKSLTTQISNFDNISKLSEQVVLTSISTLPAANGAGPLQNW

SMILES | pIC50 (human orexin-2 receptor) | pIC50 (human orexin-1 receptor)
C[C@@]1(c2nc3cc(C(F)(F)F)ccc3[nH]2)CCCN1C(=O)c1ccccc1-n1cccn1 [Ex. 5.176] | 5.97 | 6.41
Cc1ccc(-n2cccn2)c(C(=O)N2CCC[C@@]2(C)c2nc3cc(C(F)(F)F)ccc3[nH]2)n1 [Ex. 5.177] | 6.07 | 7.12
Cc1cccc(C(=O)N2CCC[C@@]2(C)c2nc3cc(C(F)(F)F)ccc3[nH]2)c1-n1nccn1 [Ex. 5.179] | 5.95 | 6.43
C[C@@]1(c2nc3cc(C(F)(F)F)ccc3[nH]2)CCCN1C(=O)c1cc(C#N)ccc1-n1nccn1 [Ex. 5.180] | 6.58 | 7.38
Cc1ccc(-c2cccc(OC(F)(F)F)c2)c(C(=O)N2CCC[C@@]2(C)c2nc3cc(C(F)(F)F)ccc3[nH]2)c1 [Ex. 5.184] | 6.38 | 6.52
COc1ccccc1-c1ccc(C)cc1C(=O)N1CCC[C@@]1(C)c1nc2cc(C(F)(F)F)ccc2[nH]1 [Ex. 5.185] | 6.55 | 7.04
Cc1ccc(-c2ccc(OC(F)(F)F)cc2)c(C(=O)N2CCC[C@@]2(C)c2nc3cc(C(F)(F)F)ccc3[nH]2)c1 [Ex. 5.187] | < 5.59 | 6.51
COc1cccc(-c2ccc(C)cc2C(=O)N2CCC[C@@]2(C)c2nc3cc(C(F)(F)F)ccc3[nH]2)c1 [Ex. 5.188] | 6.92 | 7.64
Cc1cccc(-c2ccc(C)cc2C(=O)N2CCC[C@@]2(C)c2nc3cc(C(F)(F)F)ccc3[nH]2)c1 [Ex. 5.189] | 7.21 | 7.80
COc1ccc(-c2ccc(C)cc2C(=O)N2CCC[C@@]2(C)c2nc3cc(C(F)(F)F)ccc3[nH]2)cc1 [Ex. 5.191] | 7.16 | 7.74
Cc1ccc(-c2ccccc2F)c(C(=O)N2CCC[C@@]2(C)c2nc3cc(C(F)(F)F)ccc3[nH]2)c1 [Ex. 5.194] | 7.01 | 7.89
Cc1ccc(-c2cccc(C(F)(F)F)c2)c(C(=O)N2CCC[C@@]2(C)c2nc3cc(C(F)(F)F)ccc3[nH]2)c1 [Ex. 5.195] | 6.99 | 7.14
Cc1ccc(-c2cccc(C)c2C)c(C(=O)N2CCC[C@@]2(C)c2nc3cc(C(F)(F)F)ccc3[nH]2)c1 [Ex. 5.196] | 6.70 | 7.04
Cc1ccc(-c2ccc(F)cc2)c(C(=O)N2CCC[C@@]2(C)c2nc3cc(C(F)(F)F)ccc3[nH]2)c1 [Ex. 5.197] | 6.78 | 7.74
Cc1ccc(-c2ccc3c(c2)OCO3)c(C(=O)N2CCC[C@@]2(C)c2nc3cc(C(F)(F)F)ccc3[nH]2)c1 [Ex. 5.198] | 7.47 | 7.74
Cc1cc(C(=O)N2CCC[C@@]2(C)c2nc3c(F)c(F)ccc3[nH]2)c(-n2nccn2)cc1C [Ex. 5.199] | 7.08 | 7.92
C[C@@]1(c2nc3c(F)c(F)ccc3[nH]2)CCCN1C(=O)c1cc(Cl)ccc1-n1nccn1 [Ex. 5.200] | 6.29 | 6.94
Cc1ccc(C(=O)N2CCC[C@@]2(C)c2nc3c(F)c(F)ccc3[nH]2)c(-n2nccn2)c1 [Ex. 5.202] | 6.03 | 6.64
COc1ccc(-n2nccn2)c(C(=O)N2CCC[C@@]2(C)c2nc3c(F)c(F)ccc3[nH]2)c1F [Ex. 5.203] | 5.86 | 6.71

SMILES | pIC50 (human orexin-2 receptor) | pIC50 (human orexin-1 receptor)
C[C@@]1(c2nc3c(F)c(F)ccc3[nH]2)CCCN1C(=O)c1cc(F)ccc1-n1nccn1 [Ex. 5.204] | 6.05 | 6.44
Cc1nc(C(=O)N2CCC[C@@]2(C)c2nc3c(F)c(F)ccc3[nH]2)c(-c2ccccc2)s1 [Ex. 5.206] | 6.93 | 7.72
Cc1nc(C(=O)N2CCC[C@@]2(C)c2nc3c(F)c(F)ccc3[nH]2)c(-c2cccc(Cl)c2)s1 [Ex. 5.207] | 7.11 | 7.82
Cc1nc(C(=O)N2CCC[C@@]2(C)c2nc3ccc(F)c(F)c3[nH]2)c(-c2ccc(F)cc2)s1 [Ex. 5.208] | 6.55 | 7.28
Cc1cccc(-c2sc(C)nc2C(=O)N2CCC[C@@]2(C)c2nc3ccc(F)c(F)c3[nH]2)c1 [Ex. 5.210] | 7.57 | 8.52
Cc1nc(C(=O)N2CCC[C@@]2(C)c2nc3c(F)c(F)ccc3[nH]2)c(-c2cccc(F)c2)s1 [Ex. 5.212] | 6.62 | 7.59
COc1cccc(-c2sc(C)nc2C(=O)N2CCC[C@@]2(C)c2nc3c(F)c(F)ccc3[nH]2)c1 [Ex. 5.213] | 7.29 | 7.80
Cc1ccc(-c2ccccn2)c(C(=O)N2CCC[C@@]2(C)c2nc3c(C)c(Cl)ccc3[nH]2)c1 [Ex. 5.215] | 7.96 | 8.40
Cc1ccc(-c2cccnc2)c(C(=O)N2CCC[C@@]2(C)c2nc3ccc(Cl)c(C)c3[nH]2)c1 [Ex. 5.216] | 7.35 | 7.82
Cc1ccc(-c2cccnc2)c(C(=O)N2CCC[C@@]2(C)c2nc3ccc(Cl)c(C)c3[nH]2)c1 [Ex. 5.217] | 6.56 | 7.01
Cc1c(Cl)ccc2[nH]c([C@]3(C)CCCN3C(=O)c3cc(F)ccc3-c3ccccc3)nc12 [Ex. 5.218] | 7.44 | 7.89
Cc1c(Cl)ccc2nc([C@]3(C)CCCN3C(=O)c3cc(F)ccc3-c3cccnc3)[nH]c12 [Ex. 5.220] | 6.60 | 7.01
Cc1ccc(-c2ccccc2)c(C(=O)N2CCC[C@@]2(C)c2nc3c(C)c(Cl)ccc3[nH]2)c1 [Ex. 5.223] | 7.92 | 8.52
Cc1c(Cl)ccc2nc([C@]3(C)CCCN3C(=O)c3nc(-c4ccccc4)sc3-c3ccc(F)cc3)[nH]c12 [Ex. 5.226] | 6.81 | 8.15
Cc1c(Cl)ccc2[nH]c([C@]3(C)CCCN3C(=O)c3nc(-c4ccc(F)cc4)sc3-c3ccc(F)cc3)nc12 [Ex. 5.227] | 6.28 | 7.70
Cc1ccccc1-c1nc(C(=O)N2CCC[C@@]2(C)c2nc3c(C)c(Cl)ccc3[nH]2)c(-c2ccc(F)cc2)s1 [Ex. 5.228] | 5.69 | 7.25
COc1ccccc1-c1nc(C(=O)N2CCC[C@@]2(C)c2nc3c(C)c(Cl)ccc3[nH]2)c(-c2ccc(F)cc2)s1 [Ex. 5.229] | 6.07 | 7.27
Cc1cccc(-c2nc(C(=O)N3CCC[C@@]3(C)c3nc4c(C)c(Cl)ccc4[nH]3)c(-c3ccc(F)cc3)s2)c1 [Ex. 5.230] | 6.28 | 7.68
COc1cccc(-c2nc(C(=O)N3CCC[C@@]3(C)c3nc4ccc(Cl)c(C)c4[nH]3)c(-c3ccc(F)cc3)s2)c1 [Ex. 5.231] | 6.87 | 7.82

Other lines, results leading:

pIC50 (human orexin-2 receptor) | pIC50 (human orexin-1 receptor) | SMILES
6.55 | 7.70 | Cc1ccc(-n2nccn2)c(C(=O)N2CCC[C@@]2(C)c2nc3cc(C(F)(F)F)ccc3[nH]2)n1 [Ex. 5.178]
6.25 | 6.41 | Cc1ccc(-c2ccc(F)cc2C)c(C(=O)N2CCC[C@@]2(C)c2nc3cc(C(F)(F)F)ccc3[nH]2)c1 [Ex. 5.181]
7.26 | 8.00 | Cc1ccc(-c2cccc(F)c2)c(C(=O)N2CCC[C@@]2(C)c2nc3cc(C(F)(F)F)ccc3[nH]2)c1 [Ex. 5.182]
5.93 | 6.47 | Cc1ccc(-c2ccc(C(F)(F)F)cc2)c(C(=O)N2CCC[C@@]2(C)c2nc3cc(C(F)(F)F)ccc3[nH]2)c1 [Ex. 5.183]
6.53 | 6.92 | Cc1ccc(-c2ccccc2C)c(C(=O)N2CCC[C@@]2(C)c2nc3cc(C(F)(F)F)ccc3[nH]2)c1 [Ex. 5.186]
6.92 | 7.24 | Cc1ccc(-c2cccc(C#N)c2)c(C(=O)N2CCC[C@@]2(C)c2nc3cc(C(F)(F)F)ccc3[nH]2)c1 [Ex. 5.190]
7.06 | 7.64 | Cc1ccc(-c2ccc(C)cc2C(=O)N2CCC[C@@]2(C)c2nc3cc(C(F)(F)F)ccc3[nH]2)cc1 [Ex. 5.192]
6.69 | 7.62 | Cc1ccc(-c2ccc(C#N)cc2)c(C(=O)N2CCC[C@@]2(C)c2nc3cc(C(F)(F)F)ccc3[nH]2)c1 [Ex. 5.193]
6.06 | 6.58 | Cc1ccc(-n2cccn2)c(C(=O)N2CCC[C@@]2(C)c2nc3c(F)c(F)ccc3[nH]2)c1 [Ex. 5.201]
6.07 | 6.83 | Cc1ccc(-n2nccn2)c(C(=O)N2CCC[C@@]2(C)c2nc3c(F)c(F)ccc3[nH]2)n1 [Ex. 5.205]
7.00 | 7.77 | Cc1ccc(-c2sc(C)nc2C(=O)N2CCC[C@@]2(C)c2nc3c(F)c(F)ccc3[nH]2)cc1 [Ex. 5.209]
6.80 | 7.57 | Cc1nc(C(=O)N2CCC[C@@]2(C)c2nc3c(F)c(F)ccc3[nH]2)c(-c2ccc(Cl)cc2)s1 [Ex. 5.211]
8.40 | 8.70 | Cc1ccc(-c2ncccn2)c(C(=O)N2CCC[C@@]2(C)c2nc3c(C)c(Cl)ccc3[nH]2)c1 [Ex. 5.214]
7.14 | 7.72 | Cc1c(Cl)ccc2nc([C@]3(C)CCCN3C(=O)c3cc(F)ccc3-c3ccccn3)[nH]c12 [Ex. 5.219]
7.08 | 7.72 | Cc1c(Cl)ccc2[nH]c([C@]3(C)CCCN3C(=O)c3c(F)cccc3-c3ccccn3)nc12 [Ex. 5.221]
7.17 | 7.59 | Cc1c(Cl)ccc2[nH]c([C@]3(C)CCCN3C(=O)c3c(F)cccc3-c3ncccn3)nc12 [Ex. 5.222]
7.68 | 8.15 | Cc1c(Cl)ccc2[nH]c([C@]3(C)CCCN3C(=O)c3cc(F)ccc3-c3ncccn3)nc12 [Ex. 5.224]
7.36 | 7.80 | Cc1c(Cl)ccc2nc([C@]3(C)CCCN3C(=O)c3c(F)cccc3-c3ccccc3)[nH]c12 [Ex. 5.225]
5.69 | 7.70 | Cc1ccc(-c2nc(C(=O)N3CCC[C@@]3(C)c3nc4c(C)c(Cl)ccc4[nH]3)c(-c3ccc(F)cc3)s2)cc1 [Ex. 5.232]
6.58 | 8.30 | Cc1c(Cl)ccc2[nH]c([C@]3(C)CCCN3C(=O)c3nc(-c4ccccc4F)sc3-c3ccc(F)cc3)nc12 [Ex. 5.233]
